Holding throughout (experiment): relative viability (nuclei count vs DMSO), 5 days (fraction); higher = more cells survive
Compound in the assay “BI-D1870 + Luminespib”: CC(C)CCN1c2nc(Nc3cc(F)c(O)c(F)c3)ncc2N(C)C(=O)C1C [BI-D1870] + CCNC(=O)c1noc(-c2cc(C(C)C)c(O)cc2O)c1-c1ccc(CN2CCOCC2)cc1 [Luminespib] (partner 0.01 µM)
In short, it runs like this:
(§1)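 Lung cancer cell lines were seeded in 1536-well plates and dosed by pin tool the next day, with either a single drug or a fixed anchor-drug dose combined with five library-drug doses (not always all listed) spaced in √10 steps. Five days later, one step fixed the cells and stained their nuclei (final 0.05% Triton X-100, 1% formaldehyde, 1 ug/ml Hoechst), and nuclei were counted on 4× images. Relative viability is the nuclei count in treated wells divided by the count in vehicle wells, and each value is the median of duplicate plates.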

Compound in the assay “BI-D1870 + Phenformin”: CC(C)CCN1c2nc(Nc3cc(F)c(O)c(F)c3)ncc2N(C)C(=O)C1C [BI-D1870] + N=C(N)NC(=N)NCCc1ccccc1 [Phenformin] (partner 250 µM)
In a few lines:
as §1

Compound in the assay “BI-D1870 + Decitabine”: CC(C)CCN1c2nc(Nc3cc(F)c(O)c(F)c3)ncc2N(C)C(=O)C1C [BI-D1870] + Nc1ncn([C@H]2C[C@H](O)[C@@H](CO)O2)c(=O)n1 [Decitabine] (partner 2 µM)
In short, it runs like this: as §1

Compound in the assay “Zebularine + Linsitinib”: O=c1ncccn1[C@@H]1O[C@H](CO)[C@@H](O)[C@H]1O [Zebularine] + C[C@]1(O)C[C@@H](c2nc(-c3ccc4ccc(-c5ccccc5)nc4c3)c3c(N)nccn32)C1 [Linsitinib] (partner 1 µM)
In a few lines:
as §1

As to EMC-BAC-2, the relative viability amounted to 1.2 in the assay with BI-D1870 + Luminespib (first compound 0.04 µM); 1.08 with BI-D1870 + Luminespib (first compound 0.1265 µM); 1.02 in the assay with BI-D1870 + Luminespib (first compound 0.4 µM); 1.38 with BI-D1870 + Luminespib (first compound 1.265 µM); 1.21 with BI-D1870 + Luminespib (first compound 4 µM); 0.578 with BI-D1870 + Phenformin (first compound 0.04 µM). In addition, the relative viability was found to be 0.519 with BI-D1870 + Phenformin (first compound 0.1265 µM); 0.53 in the assay with BI-D1870 + Phenformin (first compound 0.4 µM); 0.549 with BI-D1870 + Phenformin (first compound 1.265 µM); 0.499 with BI-D1870 + Phenformin (first compound 4 µM); 1.02 with BI-D1870 + Decitabine (first compound 0.04 µM); 0.985 with BI-D1870 + Decitabine (first compound 0.1265 µM). Also, the relative viability with BI-D1870 + Decitabine (first compound 0.4 µM) worked out at 1.01; in the assay with BI-D1870 + Decitabine (first compound 1.265 µM), 1.27; with BI-D1870 + Decitabine (first compound 4 µM), 1.02; with Zebularine + Linsitinib (first compound 1 µM), 0.899; with Zebularine + Linsitinib (first compound 3.162 µM) it was 0.886; with Zebularine + Linsitinib (first compound 10 µM), 0.637. In addition, the relative viability turned out to be 0.879 with Zebularine + Linsitinib (first compound 31.62 µM) and 0.839 with Zebularine + Linsitinib (first compound 100 µM).

For the cell line LK-2, the relative viability with BI-D1870 + Luminespib (first compound 0.04 µM) is 0.204; in the assay with BI-D1870 + Luminespib (first compound 0.1265 µM), 0.19; with BI-D1870 + Luminespib (first compound 0.4 µM) it was 0.185; in the assay with BI-D1870 + Luminespib (first compound 1.265 µM) it was 0.169; with BI-D1870 + Luminespib (first compound 4 µM) it was 0.212; with BI-D1870 + Phenformin (first compound 0.04 µM) it was 0.631. Besides, the relative viability with BI-D1870 + Phenformin (first compound 0.1265 µM) came to 0.437; in the assay with BI-D1870 + Phenformin (first compound 0.4 µM), 0.451; in the assay with BI-D1870 + Phenformin (first compound 1.265 µM), 0.545; with BI-D1870 + Phenformin (first compound 4 µM) it was 0.217; in the assay with BI-D1870 + Decitabine (first compound 0.04 µM), 0.373; with BI-D1870 + Decitabine (first compound 0.1265 µM) it was 0.317. In addition, the relative viability with BI-D1870 + Decitabine (first compound 0.4 µM) turned out to be 0.379; in the assay with BI-D1870 + Decitabine (first compound 1.265 µM), 0.353; with BI-D1870 + Decitabine (first compound 4 µM), 0.342; with Zebularine + Linsitinib (first compound 1 µM), 0.52; with Zebularine + Linsitinib (first compound 3.162 µM) it was 0.564; with Zebularine + Linsitinib (first compound 10 µM), 0.371. Further, the relative viability in the assay with Zebularine + Linsitinib (first compound 31.62 µM) was 0.35; with Zebularine + Linsitinib (first compound 100 µM) it was 0.218.

Consider NCI-H2126, for which the relative viability is 0.899 with BI-D1870 + Luminespib (first compound 0.04 µM); 0.767 with BI-D1870 + Luminespib (first compound 0.1265 µM); 0.866 in the assay with BI-D1870 + Luminespib (first compound 0.4 µM); 0.915 in the assay with BI-D1870 + Luminespib (first compound 1.265 µM); 0.769 with BI-D1870 + Luminespib (first compound 4 µM); 0.525 in the assay with BI-D1870 + Phenformin (first compound 0.04 µM). The relative viability in the assay with BI-D1870 + Phenformin (first compound 0.1265 µM) was 0.493; with BI-D1870 + Phenformin (first compound 0.4 µM), 0.508; with BI-D1870 + Phenformin (first compound 1.265 µM) it was 0.53; with BI-D1870 + Phenformin (first compound 4 µM) it was 0.511; with BI-D1870 + Decitabine (first compound 0.04 µM) it was 0.576; with BI-D1870 + Decitabine (first compound 0.1265 µM), 0.549. Also, the relative viability in the assay with BI-D1870 + Decitabine (first compound 0.4 µM) amounted to 0.585; with BI-D1870 + Decitabine (first compound 1.265 µM), 0.606; with BI-D1870 + Decitabine (first compound 4 µM) it was 0.556; with Zebularine + Linsitinib (first compound 1 µM), 0.743; in the assay with Zebularine + Linsitinib (first compound 3.162 µM) it was 0.644; with Zebularine + Linsitinib (first compound 10 µM), 0.668. Besides, the relative viability came out at 0.624 in the assay with Zebularine + Linsitinib (first compound 31.62 µM) and 0.478 with Zebularine + Linsitinib (first compound 100 µM).

On to HCC-78, for which the relative viability in the assay with BI-D1870 + Phenformin (first compound 0.04 µM) turned out to be 0.72; in the assay with BI-D1870 + Phenformin (first compound 0.1265 µM) it was 0.796; in the assay with BI-D1870 + Phenformin (first compound 0.4 µM), 0.795; with BI-D1870 + Phenformin (first compound 1.265 µM), 0.822; with BI-D1870 + Phenformin (first compound 4 µM), 0.593; with BI-D1870 + Decitabine (first compound 0.04 µM) it was 0.755. For the same cell line, the relative viability with BI-D1870 + Decitabine (first compound 0.1265 µM) was determined as 0.774; with BI-D1870 + Decitabine (first compound 0.4 µM), 0.791; in the assay with BI-D1870 + Decitabine (first compound 1.265 µM) it was 0.727; with BI-D1870 + Decitabine (first compound 4 µM), 0.746; with Zebularine + Linsitinib (first compound 1 µM) it was 0.53; with Zebularine + Linsitinib (first compound 3.162 µM), 0.562. Further, the relative viability in the assay with Zebularine + Linsitinib (first compound 10 µM) stood at 0.379; with Zebularine + Linsitinib (first compound 31.62 µM), 0.43; in the assay with Zebularine + Linsitinib (first compound 100 µM), 0.229.

Take NCI-H1299: the relative viability in the assay with Zebularine + Linsitinib (first compound 1 µM) was 1.09; with Zebularine + Linsitinib (first compound 3.162 µM), 0.993; in the assay with Zebularine + Linsitinib (first compound 10 µM), 0.984; in the assay with Zebularine + Linsitinib (first compound 31.62 µM), 1.07; with Zebularine + Linsitinib (first compound 100 µM), 0.535.

With NCI-H1650, the relative viability with BI-D1870 + Luminespib (first compound 0.04 µM) turned out to be 0.197; with BI-D1870 + Luminespib (first compound 0.1265 µM), 0.212; with BI-D1870 + Luminespib (first compound 0.4 µM), 0.193; in the assay with BI-D1870 + Luminespib (first compound 1.265 µM), 0.212; in the assay with BI-D1870 + Luminespib (first compound 4 µM), 0.2; with BI-D1870 + Phenformin (first compound 0.04 µM), 0.368. The relative viability with BI-D1870 + Phenformin (first compound 0.1265 µM) is 0.362; with BI-D1870 + Phenformin (first compound 0.4 µM), 0.358; in the assay with BI-D1870 + Phenformin (first compound 1.265 µM), 0.414; in the assay with BI-D1870 + Phenformin (first compound 4 µM), 0.304; in the assay with BI-D1870 + Decitabine (first compound 0.04 µM), 0.405; in the assay with BI-D1870 + Decitabine (first compound 0.1265 µM) it was 0.43. Further, the relative viability with BI-D1870 + Decitabine (first compound 0.4 µM) turned out to be 0.554; in the assay with BI-D1870 + Decitabine (first compound 1.265 µM), 0.572; with BI-D1870 + Decitabine (first compound 4 µM), 0.589.

Take ChaGo-K-1: the relative viability was 0.643 in the assay with BI-D1870 + Luminespib (first compound 0.04 µM); 0.406 with BI-D1870 + Luminespib (first compound 0.1265 µM); 0.601 with BI-D1870 + Luminespib (first compound 0.4 µM); 0.631 with BI-D1870 + Luminespib (first compound 1.265 µM); 0.551 in the assay with BI-D1870 + Luminespib (first compound 4 µM); 0.481 with BI-D1870 + Phenformin (first compound 0.04 µM). Also, the relative viability was determined as 0.522 in the assay with BI-D1870 + Phenformin (first compound 0.1265 µM); 0.477 with BI-D1870 + Phenformin (first compound 0.4 µM); 0.481 in the assay with BI-D1870 + Phenformin (first compound 1.265 µM); 0.412 with BI-D1870 + Phenformin (first compound 4 µM); 0.527 in the assay with BI-D1870 + Decitabine (first compound 0.04 µM); 0.468 in the assay with BI-D1870 + Decitabine (first compound 0.1265 µM). Further, the relative viability with BI-D1870 + Decitabine (first compound 0.4 µM) is 0.506; with BI-D1870 + Decitabine (first compound 1.265 µM) it was 0.519; with BI-D1870 + Decitabine (first compound 4 µM), 0.511.

NCI-H2228: the relative viability in the assay with BI-D1870 + Luminespib (first compound 0.04 µM) was 0.142; with BI-D1870 + Luminespib (first compound 0.1265 µM) it was 0.131; in the assay with BI-D1870 + Luminespib (first compound 0.4 µM) it was 0.146; with BI-D1870 + Luminespib (first compound 1.265 µM) it was 0.157; in the assay with BI-D1870 + Luminespib (first compound 4 µM), 0.127; with BI-D1870 + Phenformin (first compound 0.04 µM), 0.4. Further, the relative viability worked out at 0.417 in the assay with BI-D1870 + Phenformin (first compound 0.1265 µM); 0.317 with BI-D1870 + Phenformin (first compound 0.4 µM); 0.348 in the assay with BI-D1870 + Phenformin (first compound 1.265 µM); 0.288 in the assay with BI-D1870 + Phenformin (first compound 4 µM); 0.616 with Zebularine + Linsitinib (first compound 1 µM); 0.666 in the assay with Zebularine + Linsitinib (first compound 3.162 µM). For the same cell line, the relative viability in the assay with Zebularine + Linsitinib (first compound 10 µM) worked out at 0.514; in the assay with Zebularine + Linsitinib (first compound 31.62 µM), 0.509; with Zebularine + Linsitinib (first compound 100 µM), 0.409.

Source of the values: the supplement of paper PMC10307832.
